The supplement of paper PMC10307832

Columns and labels:
Assay in all cases: relative viability (nuclei count vs DMSO), 5 days (fraction); higher = more cells survive
LC-2-ad = test system: LC-2-ad
In short: (§1)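 Five library-drug doses in √10 steps were combined with a fixed anchor-drug dose, or a single drug was given alone, by pin tool to lung cancer cell lines in 1536-well plates the day after seeding. Nuclei were stained and counted after 5 days. Relative viability is the nuclei count in treated wells over that in vehicle wells, taken as the median of duplicate plates.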

NCI-H596 = test system: NCI-H596
In short: as §1

NCI-H1793 = test system: NCI-H1793
In short: as §1

NCI-H2228 = test system: NCI-H2228
In short: as §1

SW 1573 = test system: SW 1573
In short: as §1

LK-2 = test system: LK-2
In short: as §1

NCI-H1650 = test system: NCI-H1650
In short: as §1

201T = test system: 201T
In short: as §1

NCI-H23 = test system: NCI-H23
In short: as §1

PC-14 = test system: PC-14
In short: as §1

LU99A = test system: LU99A
In short: as §1

NCI-H460 = test system: NCI-H460
In short: as §1

NCI-H2347 = test system: NCI-H2347
In short: as §1

H3255 = test system: H3255
In short: as §1

A-427 = test system: A-427
In short: as §1

LCLC-97TM1 = test system: LCLC-97TM1
In short: as §1

HCC-44 = test system: HCC-44
In short: as §1

NCI-H1563 = test system: NCI-H1563
In short: as §1

NCI-H727 = test system: NCI-H727
In short: as §1

COR-L23 = test system: COR-L23
In short: as §1

For `Cc1sc2c(c1C)C(c1ccc(Cl)cc1)=N[C@@H](CC(=O)OC(C)(C)C)c1nnc(C)n1-2` [JQ1] + CS(=O)(=O)CCNCc1ccc(-c2ccc3ncnc(Nc4ccc(OCc5cccc(F)c5)c(Cl)c4)c3c2)o1 [Lapatinib] (partner 2 µM), the relative viability (LC-2-ad; first compound 0.04 µM) was 0.92, the relative viability (LC-2-ad; first compound 0.1265 µM) was 0.436 and the relative viability (LC-2-ad; first compound 0.4 µM) was 0.409. It also gave a relative viability (LC-2-ad; first compound 1.265 µM) of 0.158, a relative viability (LC-2-ad; first compound 4 µM) of 0.155 and a relative viability (NCI-H596; first compound 0.04 µM) of 1.07. For the same compound, the relative viability (NCI-H596; first compound 0.1265 µM) was 0.956, the relative viability (NCI-H596; first compound 0.4 µM) was 0.887 and the relative viability (NCI-H596; first compound 1.265 µM) was 0.546. It also gave a relative viability (NCI-H596; first compound 4 µM) of 0.415, a relative viability (NCI-H1793; first compound 0.04 µM) of 0.617 and a relative viability (NCI-H1793; first compound 0.1265 µM) of 0.776. It also gave a relative viability (NCI-H1793; first compound 0.4 µM) of 0.805, a relative viability (NCI-H1793; first compound 1.265 µM) of 0.652 and a relative viability (NCI-H1793; first compound 4 µM) of 0.576. For the same compound, the relative viability (NCI-H2228; first compound 0.04 µM) was 0.902, the relative viability (NCI-H2228; first compound 0.1265 µM) was 0.876 and the relative viability (NCI-H2228; first compound 0.4 µM) was 0.751. It also gave a relative viability (NCI-H2228; first compound 1.265 µM) of 0.374, a relative viability (NCI-H2228; first compound 4 µM) of 0.327 and a relative viability (SW 1573; first compound 0.04 µM) of 1.13. For the same compound, the relative viability (SW 1573; first compound 0.1265 µM) was 0.886, the relative viability (SW 1573; first compound 0.4 µM) was 0.881 and the relative viability (SW 1573; first compound 1.265 µM) was 0.61. It also gave a relative viability (SW 1573; first compound 4 µM) of 0.512, a relative viability (LK-2; first compound 0.04 µM) of 0.886 and a relative viability (LK-2; first compound 0.1265 µM) of 0.896. For the same compound, the relative viability (LK-2; first compound 0.4 µM) was 0.456, the relative viability (LK-2; first compound 1.265 µM) was 0.177 and the relative viability (LK-2; first compound 4 µM) was 0.286. The relative viability (NCI-H1650; first compound 0.04 µM) was 0.704, the relative viability (NCI-H1650; first compound 0.1265 µM) was 0.469 and the relative viability (NCI-H1650; first compound 0.4 µM) was 0.316. The relative viability (NCI-H1650; first compound 1.265 µM) was 0.204, the relative viability (NCI-H1650; first compound 4 µM) was 0.253 and the relative viability (201T; first compound 0.04 µM) was 0.998. It also gave a relative viability (201T; first compound 0.1265 µM) of 0.51, a relative viability (201T; first compound 0.4 µM) of 0.974 and a relative viability (201T; first compound 1.265 µM) of 0.724. The relative viability (201T; first compound 4 µM) was 0.548, the relative viability (NCI-H23; first compound 0.04 µM) was 0.956 and the relative viability (NCI-H23; first compound 0.1265 µM) was 0.943. For the same compound, the relative viability (NCI-H23; first compound 0.4 µM) was 1.09, the relative viability (NCI-H23; first compound 1.265 µM) was 0.301 and the relative viability (NCI-H23; first compound 4 µM) was 0.362. It also gave a relative viability (PC-14; first compound 0.04 µM) of 0.307, a relative viability (PC-14; first compound 0.1265 µM) of 0.245 and a relative viability (PC-14; first compound 0.4 µM) of 0.352. For the same compound, the relative viability (PC-14; first compound 1.265 µM) was 0.284, the relative viability (PC-14; first compound 4 µM) was 0.211 and the relative viability (LU99A; first compound 0.04 µM) was 1.14. For the same compound, the relative viability (LU99A; first compound 0.1265 µM) was 0.933, the relative viability (LU99A; first compound 0.4 µM) was 0.902 and the relative viability (LU99A; first compound 1.265 µM) was 0.316. For the same compound, the relative viability (LU99A; first compound 4 µM) was 0.217, the relative viability (NCI-H460; first compound 0.04 µM) was 0.887 and the relative viability (NCI-H460; first compound 0.1265 µM) was 0.465. For the same compound, the relative viability (NCI-H460; first compound 0.4 µM) was 0.536, the relative viability (NCI-H460; first compound 1.265 µM) was 0.217 and the relative viability (NCI-H460; first compound 4 µM) was 0.169. The relative viability (NCI-H2347; first compound 0.04 µM) was 0.934, the relative viability (NCI-H2347; first compound 0.1265 µM) was 0.623 and the relative viability (NCI-H2347; first compound 0.4 µM) was 0.831. For the same compound, the relative viability (NCI-H2347; first compound 1.265 µM) was 0.701, the relative viability (NCI-H2347; first compound 4 µM) was 0.679 and the relative viability (H3255; first compound 0.04 µM) was 0.226. It also gave a relative viability (H3255; first compound 0.1265 µM) of 0.251, a relative viability (H3255; first compound 0.4 µM) of 0.248 and a relative viability (H3255; first compound 1.265 µM) of 0.169. It also gave a relative viability (H3255; first compound 4 µM) of 0.227, a relative viability (A-427; first compound 0.04 µM) of 0.925 and a relative viability (A-427; first compound 0.1265 µM) of 0.916. It also gave a relative viability (A-427; first compound 0.4 µM) of 1.08, a relative viability (A-427; first compound 1.265 µM) of 1.02 and a relative viability (A-427; first compound 4 µM) of 0.696. For the same compound, the relative viability (LCLC-97TM1; first compound 0.1265 µM) was 0.805, the relative viability (LCLC-97TM1; first compound 0.4 µM) was 0.781 and the relative viability (LCLC-97TM1; first compound 1.265 µM) was 0.243. The relative viability (LCLC-97TM1; first compound 4 µM) was 0.252, the relative viability (HCC-44; first compound 0.04 µM) was 1.07 and the relative viability (HCC-44; first compound 0.1265 µM) was 0.849. The relative viability (HCC-44; first compound 0.4 µM) was 0.795, the relative viability (HCC-44; first compound 1.265 µM) was 0.488 and the relative viability (HCC-44; first compound 4 µM) was 0.532. The relative viability (NCI-H1563; first compound 0.04 µM) was 0.89, the relative viability (NCI-H1563; first compound 0.1265 µM) was 0.72 and the relative viability (NCI-H1563; first compound 0.4 µM) was 0.662. The relative viability (NCI-H1563; first compound 1.265 µM) was 0.717, the relative viability (NCI-H1563; first compound 4 µM) was 0.771 and the relative viability (NCI-H727; first compound 0.04 µM) was 0.727. The relative viability (NCI-H727; first compound 0.1265 µM) was 0.695, the relative viability (NCI-H727; first compound 0.4 µM) was 0.506 and the relative viability (NCI-H727; first compound 1.265 µM) was 0.361. It also gave a relative viability (NCI-H727; first compound 4 µM) of 0.469, a relative viability (COR-L23; first compound 0.04 µM) of 0.926 and a relative viability (COR-L23; first compound 0.1265 µM) of 0.782. It also gave a relative viability (COR-L23; first compound 0.4 µM) of 0.942, a relative viability (COR-L23; first compound 1.265 µM) of 0.773 and a relative viability (COR-L23; first compound 4 µM) of 0.623.
